Experiment [1] deals with T1, Tyrosine-protein phosphatase non-receptor type 7 (Homo sapiens, UniProt P35236).
T1 sequence (P35236 whole entry): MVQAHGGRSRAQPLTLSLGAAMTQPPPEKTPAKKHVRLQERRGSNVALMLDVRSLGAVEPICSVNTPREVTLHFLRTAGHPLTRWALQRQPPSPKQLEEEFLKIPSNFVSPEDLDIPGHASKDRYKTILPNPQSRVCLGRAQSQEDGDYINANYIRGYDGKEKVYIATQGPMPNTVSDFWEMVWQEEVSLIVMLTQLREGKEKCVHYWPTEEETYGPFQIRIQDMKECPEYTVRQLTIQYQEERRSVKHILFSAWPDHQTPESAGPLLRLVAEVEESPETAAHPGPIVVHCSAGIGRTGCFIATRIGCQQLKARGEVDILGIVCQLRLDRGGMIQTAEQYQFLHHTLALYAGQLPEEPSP
Type of experiment: functional.

Experiment [2] concerns the target T2, Tyrosine-protein phosphatase non-receptor type 22 (Homo sapiens, UniProt Q9Y2R2).
T2 sequence (Q9Y2R2 whole entry): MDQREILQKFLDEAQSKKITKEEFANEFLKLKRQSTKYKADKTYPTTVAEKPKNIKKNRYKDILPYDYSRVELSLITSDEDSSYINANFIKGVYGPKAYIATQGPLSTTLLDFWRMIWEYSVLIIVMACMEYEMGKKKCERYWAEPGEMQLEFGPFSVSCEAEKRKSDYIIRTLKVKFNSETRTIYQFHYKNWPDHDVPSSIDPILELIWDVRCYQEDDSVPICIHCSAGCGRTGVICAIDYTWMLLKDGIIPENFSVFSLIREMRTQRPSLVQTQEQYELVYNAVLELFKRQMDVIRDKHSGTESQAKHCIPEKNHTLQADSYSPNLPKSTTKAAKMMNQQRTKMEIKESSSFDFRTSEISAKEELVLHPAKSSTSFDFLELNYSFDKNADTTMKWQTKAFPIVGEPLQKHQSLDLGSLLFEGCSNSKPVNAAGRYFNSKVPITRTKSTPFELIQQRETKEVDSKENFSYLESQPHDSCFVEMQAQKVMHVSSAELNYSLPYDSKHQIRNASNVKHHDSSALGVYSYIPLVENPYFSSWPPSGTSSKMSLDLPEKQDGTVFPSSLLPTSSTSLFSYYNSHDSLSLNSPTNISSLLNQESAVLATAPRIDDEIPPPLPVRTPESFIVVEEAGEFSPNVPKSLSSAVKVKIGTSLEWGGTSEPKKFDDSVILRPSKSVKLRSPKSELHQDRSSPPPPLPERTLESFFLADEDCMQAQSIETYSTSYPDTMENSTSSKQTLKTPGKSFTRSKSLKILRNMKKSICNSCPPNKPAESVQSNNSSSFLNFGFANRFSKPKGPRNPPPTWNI
The class given is functional.

In experiment [3] the target is T2, Tyrosine-protein phosphatase non-receptor type 22. Type of experiment: functional. The source holds these as a separate data set.
Experiment [4] has as its target T3, Delta-type opioid receptor (Homo sapiens, UniProt P41143). Kind of experiment: HTS Image-Based Screen for Antagonists of the DOR Receptor. [Related pubchem assays (depositor defined):AID1777, AID1785, AID1786, AID2133]. Type of experiment: functional.
The target of a further experiment is Mu-type opioid receptor (Homo sapiens, UniProt P35372). In words: HTS Image-Based Screen for Agonists of the MOR Receptor. [Related pubchem assays (depositor defined):AID1777, AID1785, AID1786, AID2133]. Type of experiment: functional.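 Also: imaging of beta-arrestin GFP recruitment into spots after receptor activation.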
Mu-type opioid receptor, sequence (P35372 whole entry): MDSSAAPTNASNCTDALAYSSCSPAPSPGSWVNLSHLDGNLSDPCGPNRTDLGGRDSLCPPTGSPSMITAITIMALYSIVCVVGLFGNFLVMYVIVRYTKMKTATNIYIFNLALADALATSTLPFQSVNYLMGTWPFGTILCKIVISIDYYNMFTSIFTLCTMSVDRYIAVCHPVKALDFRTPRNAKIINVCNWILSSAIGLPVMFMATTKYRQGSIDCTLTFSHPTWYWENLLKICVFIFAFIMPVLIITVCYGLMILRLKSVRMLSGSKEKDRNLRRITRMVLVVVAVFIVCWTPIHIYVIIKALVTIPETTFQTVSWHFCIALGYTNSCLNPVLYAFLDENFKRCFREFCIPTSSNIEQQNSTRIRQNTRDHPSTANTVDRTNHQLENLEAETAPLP
For experiment [5], the target named is T3, Delta-type opioid receptor. In words: HTS Image-Based Screen for Agonists of the DOR Receptor. [Related pubchem assays (depositor defined):AID1777, AID1786, AID2133]. Type of experiment: functional.
Experiment [6] addresses T4, Kappa-type opioid receptor (Homo sapiens, UniProt P41145). Type of experiment: functional.
For a further experiment, the target named is Beta-galactosidase (Escherichia coli, UniProt Q8VNN2). The class given is functional.
Beta-galactosidase, sequence (Q8VNN2 whole entry): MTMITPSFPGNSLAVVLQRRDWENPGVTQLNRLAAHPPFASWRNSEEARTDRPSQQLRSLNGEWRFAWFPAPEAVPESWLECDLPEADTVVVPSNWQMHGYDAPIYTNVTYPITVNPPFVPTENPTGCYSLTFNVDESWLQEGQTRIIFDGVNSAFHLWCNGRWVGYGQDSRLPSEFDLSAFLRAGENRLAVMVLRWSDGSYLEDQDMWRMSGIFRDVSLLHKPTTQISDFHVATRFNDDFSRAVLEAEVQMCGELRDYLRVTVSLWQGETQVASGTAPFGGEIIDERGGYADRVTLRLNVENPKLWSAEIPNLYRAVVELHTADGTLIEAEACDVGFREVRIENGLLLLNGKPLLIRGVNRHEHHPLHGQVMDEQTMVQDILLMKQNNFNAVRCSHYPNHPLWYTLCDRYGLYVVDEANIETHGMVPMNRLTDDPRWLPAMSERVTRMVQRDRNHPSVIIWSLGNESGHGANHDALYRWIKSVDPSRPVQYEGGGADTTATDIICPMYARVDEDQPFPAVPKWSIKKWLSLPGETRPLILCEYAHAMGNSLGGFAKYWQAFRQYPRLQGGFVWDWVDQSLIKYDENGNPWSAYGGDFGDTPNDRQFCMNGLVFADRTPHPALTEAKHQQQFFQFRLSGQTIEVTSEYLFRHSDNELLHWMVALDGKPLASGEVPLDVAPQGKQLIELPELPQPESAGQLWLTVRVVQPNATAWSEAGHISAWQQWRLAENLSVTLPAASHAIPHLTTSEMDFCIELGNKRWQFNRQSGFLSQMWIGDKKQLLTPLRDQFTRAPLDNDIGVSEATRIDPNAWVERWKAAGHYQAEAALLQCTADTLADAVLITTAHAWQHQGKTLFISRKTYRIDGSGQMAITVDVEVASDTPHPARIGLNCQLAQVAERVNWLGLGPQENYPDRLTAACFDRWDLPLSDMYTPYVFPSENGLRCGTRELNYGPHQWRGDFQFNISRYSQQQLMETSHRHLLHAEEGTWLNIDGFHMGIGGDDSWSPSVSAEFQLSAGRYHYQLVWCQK
Experiment [7] addresses T4, Kappa-type opioid receptor. Type of experiment: functional. This is another data set of the same source.
The test system of experiment [8] is Vero. Kind of experiment: cells. The class given is functional, cell-based. The following applies: Chlorocebus sabaeus.
Experiment [9] concerns Vero. Kind of experiment: cells. The following applies: Chlorocebus sabaeus. The class given is functional.
Experiment [10] has as its target T5, Rac GTPase-activating protein 1 (Homo sapiens, UniProt Q9H0H5).
T5 sequence (Q9H0H5 whole entry): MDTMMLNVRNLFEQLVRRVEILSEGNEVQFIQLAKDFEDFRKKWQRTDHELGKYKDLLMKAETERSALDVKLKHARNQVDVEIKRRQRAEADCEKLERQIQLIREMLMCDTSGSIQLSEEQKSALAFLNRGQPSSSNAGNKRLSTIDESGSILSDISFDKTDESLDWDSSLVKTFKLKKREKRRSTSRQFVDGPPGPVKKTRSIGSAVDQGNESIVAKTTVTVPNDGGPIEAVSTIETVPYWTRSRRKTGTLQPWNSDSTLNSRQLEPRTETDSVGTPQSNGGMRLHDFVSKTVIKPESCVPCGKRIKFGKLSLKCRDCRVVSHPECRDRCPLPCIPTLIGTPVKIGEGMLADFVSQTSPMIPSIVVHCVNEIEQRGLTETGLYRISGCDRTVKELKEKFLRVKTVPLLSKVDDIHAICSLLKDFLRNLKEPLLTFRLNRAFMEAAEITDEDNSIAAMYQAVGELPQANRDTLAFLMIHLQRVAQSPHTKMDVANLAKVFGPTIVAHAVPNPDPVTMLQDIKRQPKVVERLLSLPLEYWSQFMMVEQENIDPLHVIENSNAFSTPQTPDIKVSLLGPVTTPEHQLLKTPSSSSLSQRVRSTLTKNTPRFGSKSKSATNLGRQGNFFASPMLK
In words: blockers of MgcRacGAP-driven Rac1 GTP hydrolysis – biochemical, ADP Hunter fluorescence, primary and confirmatory, confirmation (AID 624330). The class given is functional.

The target in experiment [11] is Sphingosine 1-phosphate receptor 1 (Homo sapiens, UniProt P21453). Kind of experiment: Fluorescence-based counterscreen assay for S1P4 agonists: Cell-based dose response high throughput screening assay to identify agonists of the Sphingosine 1-Phosphate Receptor 1 (S1P1). [Related pubchem assays (depositor defined):AID1509, AID1523, AID1801, AID463107, AID463118, AID463119, AID463122, AID463123, AID463129, AID463225, AID504400, AID504460]. The class given is functional. For orientation: A counterscreen serves to expose hits that act by an unwanted route or on another target.
Sphingosine 1-phosphate receptor 1, sequence (P21453 whole entry): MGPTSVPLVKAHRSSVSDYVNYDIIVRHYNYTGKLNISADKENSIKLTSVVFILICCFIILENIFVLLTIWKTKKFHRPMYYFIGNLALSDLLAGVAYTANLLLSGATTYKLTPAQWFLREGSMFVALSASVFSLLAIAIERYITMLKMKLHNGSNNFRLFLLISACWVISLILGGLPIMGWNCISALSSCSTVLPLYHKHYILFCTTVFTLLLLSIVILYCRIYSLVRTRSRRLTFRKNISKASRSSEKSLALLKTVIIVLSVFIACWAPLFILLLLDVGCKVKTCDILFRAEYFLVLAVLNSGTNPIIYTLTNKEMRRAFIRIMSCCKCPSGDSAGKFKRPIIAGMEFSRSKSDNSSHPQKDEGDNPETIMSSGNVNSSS

The nature of experiment [12]: Luminescence Cell-Based Dose Confirmation HTS to Identify Activators of 5'UTR Stem-Loop Driven Alpha-Synuclein mRNA Translation in H4 Neuroglioblastoma Cells. [Related pubchem assays: 1829 (Project Summary), 1814 (Primary HTS)]. The class given is functional.
A short description of experiment [13]: Luminescence Cell-Based Dose Response HTS to Identify Activators of Luciferase Translation or Activity in H4 […] Cells. [Related pubchem assays: 1829 (Project Summary), 1814 (Primary HTS)]. The class given is functional.
The subject of a further experiment is H4. In words: Luminescence Cell-Based Dose Response HTS to Identify Activators of 5'UTR Stem-Loop Driven Prion Protein mRNA Translation in H4 Neuroglioblastoma Cells. [Related pubchem assays: 1829 (Project Summary), 1814 (Primary HTS)]. The following applies: Homo sapiens. The class given is functional.
The target in experiment [14] is Sphingosine 1-phosphate receptor 4 (Homo sapiens, UniProt O95977). In words: Fluorescence dose response cell-based high throughput screening assay for agonists of the Sphingosine 1-Phosphate Receptor 4 (S1P4). [Related pubchem assays: 1509 (Primary screen.), 1523 (Confirmation screen in triplicates.)]. The class given is functional.
Sphingosine 1-phosphate receptor 4, sequence (O95977 whole entry): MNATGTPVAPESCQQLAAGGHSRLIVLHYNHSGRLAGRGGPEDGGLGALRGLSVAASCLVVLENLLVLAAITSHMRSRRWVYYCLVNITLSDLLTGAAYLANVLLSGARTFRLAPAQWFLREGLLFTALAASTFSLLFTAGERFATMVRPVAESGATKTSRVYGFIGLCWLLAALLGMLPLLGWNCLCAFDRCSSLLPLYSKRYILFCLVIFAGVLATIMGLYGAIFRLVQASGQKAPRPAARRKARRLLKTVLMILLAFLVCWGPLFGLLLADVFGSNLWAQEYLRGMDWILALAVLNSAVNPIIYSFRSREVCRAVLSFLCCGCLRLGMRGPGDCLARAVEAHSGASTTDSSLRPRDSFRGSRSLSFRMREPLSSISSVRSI

The source made the active and inactive calls.

T4 sequence (P41145 whole entry): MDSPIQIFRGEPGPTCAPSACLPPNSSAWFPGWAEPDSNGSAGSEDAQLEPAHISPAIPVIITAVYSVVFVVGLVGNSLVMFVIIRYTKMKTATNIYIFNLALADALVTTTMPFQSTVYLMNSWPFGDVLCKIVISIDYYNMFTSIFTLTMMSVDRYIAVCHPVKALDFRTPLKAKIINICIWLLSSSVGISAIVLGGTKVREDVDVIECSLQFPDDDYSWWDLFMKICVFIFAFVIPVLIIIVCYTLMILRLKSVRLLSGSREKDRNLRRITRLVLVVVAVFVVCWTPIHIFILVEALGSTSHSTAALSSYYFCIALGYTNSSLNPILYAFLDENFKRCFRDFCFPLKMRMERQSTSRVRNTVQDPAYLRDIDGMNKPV
T3 sequence (P41143 whole entry): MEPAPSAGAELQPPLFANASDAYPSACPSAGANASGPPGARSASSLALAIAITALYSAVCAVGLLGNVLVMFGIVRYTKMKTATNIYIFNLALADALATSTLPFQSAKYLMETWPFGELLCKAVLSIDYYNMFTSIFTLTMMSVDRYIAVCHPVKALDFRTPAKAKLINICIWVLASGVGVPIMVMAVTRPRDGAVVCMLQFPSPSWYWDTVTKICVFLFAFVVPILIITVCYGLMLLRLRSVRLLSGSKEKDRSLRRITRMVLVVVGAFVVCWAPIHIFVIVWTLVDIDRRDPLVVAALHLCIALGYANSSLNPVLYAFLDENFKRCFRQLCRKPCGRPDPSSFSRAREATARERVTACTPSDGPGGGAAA

As for `COc1ccc(C2SCC(=O)N2CCCN(C)C)cc1` (configuration not stated), the IC50 in experiment [1], in experiment [2] and in experiment [3] was > 79.4 µM (inactive) in each case.

On to `COc1cc(/C=C/c2ccc3cccc(O)c3n2)ccc1O`, for which the IC50 (in general, the concentration needed to halve the response being measured) in experiment [4] is > 32 µM (inactive); in experiment [6], 11.9 µM (active); in experiment [7], greater than 32 µM; in the experiment with Vero [8], > 25 µM (active); in [10], 72.4 µM (active). Besides, the EC50 (commonly the concentration giving half of the maximal effect) on Mu-type opioid receptor is > 32 µM (inactive); in experiment [5] it was > 32 µM (inactive); at Beta-galactosidase, > 31.5 µM (inactive). In addition, in the experiment with Vero [9], the CC50 (commonly the concentration that lowers cell viability or growth by half) was 12.4 µM (active).

Regarding `CC(=O)Oc1ccc2cc(-c3nc4ccccc4n3C)c(=O)oc2c1`, the EC50 in [11] was > 49.8 µM (inactive); in experiment [12] it was 94.4 µM (active); in experiment [13], 53.2 µM (active); in the experiment with H4, 4.66 µM (active); in experiment [14] it was 191 µM (not active).

The values above are taken from ChEMBL document CHEMBL1201862, “PubChem BioAssay data set” (2004).
